Tests used:
SARS-CoV-2 [1] = experiment: (§1) Functional immunofluorescence assay to measure dose dependent changes in antiviral-drug inhibitory efficacy against hCoV-19/USA-WA1/2020 in HeLa-ACE2 cells which are seeded prior to drug treatment, then infected with hCoV-19/USA-WA1/2020. Cells are fixed with 10 % formaldehyde, washed with PBS, permeabilized with permeabilization buffer, then washed with wash buffer. The cells are incubated with nucleoprotein primary antibody IC7C7. Following primary staining, cells are washed with wash buffer and incubated in a solution of with Alexa fluor 488 and DAPI. Infected and uninfected cells are visualized and analyzed by Gen5 software. The assay has been performed by Icahn School of Medicine at Mount Sinai.; format: organism-based, Homo sapiens
SARS-CoV-2 [2] = experiment: as §1, with “iPSC-Pneumocyte” for “HeLa-ACE2”, “to” for “to drug”; format: organism-based, Homo sapiens; details: Severe acute respiratory syndrome coronavirus 2, Pneumocyte; for EC90: Baseline response 0 %, Maximum response 100 %
[3] = Severe acute respiratory syndrome coronavirus 2, HeLa-ACE2

## CC(C)[C@H](Nc1ncnc2[nH]c(-c3cnn(C)c3C#N)cc12)c1ccc2c(c1)NC(=O)CO2
SARS-CoV-2 [1]; [3]
  EC50: 1.33 µM
SARS-CoV-2 [1]; Severe acute respiratory syndrome coronavirus 2, HeLa-ACE2, Baseline response 0 %, Hill slope -0.558, Maximum measured 72.17 %, Maximum response 100 %, Minimum measured 6.652 %, R squared 0.72
  EC90: > 20 µM

## CC(C)[C@@H](Nc1ncnc2[nH]c(C(=O)N[C@H]3CCN(C)C3)cc12)c1ccc2c(c1)S(=O)(=O)CCC2
SARS-CoV-2 [1]; [3]
  EC50: > 20 µM
SARS-CoV-2 [1]; Severe acute respiratory syndrome coronavirus 2, HeLa-ACE2, Baseline response 0 %, Hill slope -0.107, Maximum measured 102.123 %, Maximum response 100 %, Minimum measured 84.181 %, R squared 0.016
  EC90: > 20 µM
SARS-CoV-2 [2]
  EC50: > 50 µM
SARS-CoV-2 [2]; Hill slope -0.859, Maximum measured 114.501 %, Minimum measured 59.767 %, R squared 0.551
  EC90: > 50 µM

## CC(C)[C@@H](Nc1ncnc2[nH]c(C(N)=O)cc12)c1ccc2c(c1)OCCO2
SARS-CoV-2 [1]; [3]
  EC50: > 20 µM
SARS-CoV-2 [1]; Severe acute respiratory syndrome coronavirus 2, HeLa-ACE2, Maximum measured 95.443 %, Minimum measured 3.395 %
  EC90: > 20 µM
SARS-CoV-2 [1]; Severe acute respiratory syndrome coronavirus 2, HeLa-ACE2, Maximum measured 108.483 %, Minimum measured 88.736 %
  EC90: > 20 µM
SARS-CoV-2 [2]
  EC50: > 50 µM
SARS-CoV-2 [2]; Hill slope -3.392, Maximum measured 162.718 %, Minimum measured 51.066 %, R squared 0.094
  EC90: > 50 µM

## CC(C)[C@@H](Nc1ncnc2[nH]ccc12)c1ccc2c(c1)S(=O)(=O)CCO2
SARS-CoV-2 [1]; [3]
  EC50: > 20 µM
SARS-CoV-2 [1]; Severe acute respiratory syndrome coronavirus 2, HeLa-ACE2, Baseline response 0 %, Hill slope -0.245, Maximum measured 99.283 %, Maximum response 100 %, Minimum measured 83.757 %, R squared 0.186
  EC90: > 20 µM

## CC(C)[C@@H](Nc1ncnc2[nH]c(-c3ccc4cncn4c3)cc12)c1ccc2c(c1)S(=O)(=O)CCC2
SARS-CoV-2 [1]; [3]
  EC50: 7.12 µM
SARS-CoV-2 [1]; Severe acute respiratory syndrome coronavirus 2, HeLa-ACE2, Baseline response 0 %, Hill slope -0.819, Maximum measured 92.609 %, Maximum response 100 %, Minimum measured 28.375 %, R squared 0.905
  EC90: > 20 µM

## CC(C)[C@@H](Nc1ncnc2[nH]c(-c3cnn(C)c3C#N)cc12)c1ccc2c(n1)NC(=O)CO2
SARS-CoV-2 [1]; [3]
  EC50: 2.46 µM
SARS-CoV-2 [1]; Severe acute respiratory syndrome coronavirus 2, HeLa-ACE2, Baseline response 0 %, EC90 CI (lower) 0.524 uM, EC90 CI (upper) 2.251 uM, Hill slope -2.687, Maximum measured 122.922 %, Maximum response 100 %, Minimum measured 8.802 %, R squared 0.907
  EC90: 5.57 µM

## CC(C)[C@@H](Nc1ncnc2[nH]c(-c3cnn(C)c3)cc12)c1ccc2c(c1)S(=O)(=O)NCC2
SARS-CoV-2 [1]; [3]
  EC50: > 20 µM
SARS-CoV-2 [1]; Severe acute respiratory syndrome coronavirus 2, HeLa-ACE2, Baseline response 0 %, Hill slope -6.715, Maximum measured 105.419 %, Maximum response 100 %, Minimum measured 69.993 %, R squared 0.42
  EC90: > 20 µM

## CNC(=O)c1cccc(-c2cc3c(N[C@H](c4ccc5c(c4)S(=O)(=O)CCC5)C(C)C)ncnc3[nH]2)c1
SARS-CoV-2 [1]; [3]
  EC50: > 20 µM
SARS-CoV-2 [1]; Severe acute respiratory syndrome coronavirus 2, HeLa-ACE2, Baseline response 0 %, Hill slope -6.666, Maximum measured 112.086 %, Maximum response 100 %, Minimum measured 84.591 %, R squared 0.065
  EC90: > 20 µM

## CC(C)[C@H](Nc1ncnc2[nH]c(-c3cnn(C)c3C#N)cc12)c1ccc2c(c1)S(=O)(=O)CCC2
SARS-CoV-2 [1]; [3]
  EC50: 6.21 µM
SARS-CoV-2 [1]; Severe acute respiratory syndrome coronavirus 2, HeLa-ACE2, Baseline response 0 %, Hill slope -14.93, Maximum measured 129.006 %, Maximum response 100 %, Minimum measured 5.734 %, R squared 0.877
  EC90: 7.19 µM

## CC(C)[C@H](Nc1ncnc2[nH]c(-c3cnn(C)c3C#N)cc12)c1ccc2c(n1)NC(=O)CO2
SARS-CoV-2 [1]; [3]
  EC50: 0.858 µM
SARS-CoV-2 [1]; Severe acute respiratory syndrome coronavirus 2, HeLa-ACE2, Baseline response 0 %, Hill slope -0.619, Maximum measured 70.604 %, Maximum response 100 %, Minimum measured 3.388 %, R squared 0.805
  EC90: > 20 µM

## CCNC(=O)c1cc2c(N[C@@H](c3ccc4c(c3)S(=O)(=O)NCC4)C(C)C)ncnc2[nH]1
SARS-CoV-2 [1]; [3]
  EC50: > 20 µM
SARS-CoV-2 [1]; Severe acute respiratory syndrome coronavirus 2, HeLa-ACE2, Maximum measured 101.15 %, Minimum measured 78.382 %
  EC90: > 20 µM

## COc1ccc([C@@H](Cc2nnn[nH]2)NC(=O)c2ncnc3[nH]ccc23)cc1
SARS-CoV-2 [1]; [3]
  EC50: > 20 µM
SARS-CoV-2 [1]; Severe acute respiratory syndrome coronavirus 2, HeLa-ACE2, Maximum measured 136.92 %, Minimum measured 93.837 %
  EC90: > 20 µM

## CC(C)[C@@H](Nc1ncnc2[nH]c(-c3cnn(CC(=O)N(C)C)c3)cc12)c1ccc2c(c1)S(=O)(=O)CCC2
SARS-CoV-2 [1]; [3]
  EC50: > 20 µM
SARS-CoV-2 [1]; Severe acute respiratory syndrome coronavirus 2, HeLa-ACE2, Baseline response 0 %, Hill slope -0.117, Maximum measured 98.615 %, Maximum response 100 %, Minimum measured 84.991 %, R squared 0.091
  EC90: > 20 µM

## CCNC(=O)c1cc2c(N[C@H](c3ccc4c(c3)OCCO4)C(C)C)ncnc2[nH]1
SARS-CoV-2 [1]; [3]
  EC50: 19.7 µM
SARS-CoV-2 [1]; Severe acute respiratory syndrome coronavirus 2, HeLa-ACE2, Baseline response 0 %, Hill slope -1.464, Maximum measured 109.949 %, Maximum response 100 %, Minimum measured 49.504 %, R squared 0.869
  EC90: > 20 µM

## CNCc1cc(-c2cc3c(N[C@H](c4ccc5c(c4)S(=O)(=O)CCC5)C(C)C)ncnc3[nH]2)co1
SARS-CoV-2 [1]; [3]
  EC50: 11.1 µM
SARS-CoV-2 [1]; Severe acute respiratory syndrome coronavirus 2, HeLa-ACE2, Baseline response 0 %, Hill slope -0.715, Maximum measured 94.818 %, Maximum response 100 %, Minimum measured 27.713 %, R squared 0.683
  EC90: > 20 µM

## CC(C)[C@@H](Nc1ncnc2[nH]c(-c3ccc4nnn(C)c4c3)cc12)c1ccc2c(c1)S(=O)(=O)CCC2
SARS-CoV-2 [1]; [3]
  EC50: 3.64 µM
SARS-CoV-2 [1]; Severe acute respiratory syndrome coronavirus 2, HeLa-ACE2, Baseline response 0 %, Hill slope -0.69, Maximum measured 110.665 %, Maximum response 100 %, Minimum measured 33.895 %, R squared 0.849
  EC90: > 20 µM

## CC(C)[C@H](Nc1ncnc2[nH]c(-c3cnn(C)c3)cc12)c1ccc2c(c1)S(=O)(=O)CCC2
SARS-CoV-2 [1]; [3]
  EC50: > 20 µM
SARS-CoV-2 [1]; Severe acute respiratory syndrome coronavirus 2, HeLa-ACE2, Baseline response 0 %, Hill slope -1.829, Maximum measured 111.115 %, Maximum response 100 %, Minimum measured 52.798 %, R squared 0.593
  EC90: > 20 µM

## CC(C)(C)[C@H](Nc1ncnc2[nH]c(-c3cnn(CC(N)=O)c3)cc12)c1ccc2c(c1)OCCO2
SARS-CoV-2 [1]; [3]
  EC50: > 20 µM
SARS-CoV-2 [1]; Severe acute respiratory syndrome coronavirus 2, HeLa-ACE2, Baseline response 0 %, Hill slope -0.655, Maximum measured 108.484 %, Maximum response 100 %, Minimum measured 91.129 %, R squared 0.123
  EC90: > 20 µM

## CCNC(=O)c1cc2c(N[C@@H](c3ccc4c(c3)S(=O)(=O)CCC4)C(C)C)ncnc2[nH]1
SARS-CoV-2 [1]; [3]
  EC50: > 20 µM
SARS-CoV-2 [1]; Severe acute respiratory syndrome coronavirus 2, HeLa-ACE2, Baseline response 0 %, Hill slope -4.495, Maximum measured 108.517 %, Maximum response 100 %, Minimum measured 90.612 %, R squared 0.096
  EC90: > 20 µM

## CC(C)[C@@H](Nc1ncnc2[nH]c(-c3cncc(S(C)(=O)=O)c3)cc12)c1ccc2c(c1)S(=O)(=O)CCC2
SARS-CoV-2 [1]; [3]
  EC50: > 20 µM
SARS-CoV-2 [1]; Severe acute respiratory syndrome coronavirus 2, HeLa-ACE2, Maximum measured 119.816 %, Minimum measured 96.629 %
  EC90: > 20 µM

## CC(C)[C@@H](Nc1ncnc2[nH]c(-c3cnn(CCC(N)=O)c3)cc12)c1ccc2c(c1)OCCO2
SARS-CoV-2 [1]; [3]
  EC50: > 20 µM
SARS-CoV-2 [1]; Severe acute respiratory syndrome coronavirus 2, HeLa-ACE2, Maximum measured 112.19 %, Minimum measured 96.19 %
  EC90: > 20 µM
SARS-CoV-2 [1]; Severe acute respiratory syndrome coronavirus 2, HeLa-ACE2, Maximum measured 121.913 %, Minimum measured 97.771 %
  EC90: > 20 µM

## CC(C)[C@@H](Nc1ncnc2[nH]cc(C(=O)NC3CC3)c12)c1ccc2c(c1)S(=O)(=O)CCC2
SARS-CoV-2 [1]; [3]
  EC50: 14.4 µM
SARS-CoV-2 [1]; Severe acute respiratory syndrome coronavirus 2, HeLa-ACE2, Baseline response 0 %, Hill slope -1.207, Maximum measured 103.36 %, Maximum response 100 %, Minimum measured 37.723 %, R squared 0.64
  EC90: > 20 µM

## CC(C)[C@@H](Nc1ncnc2[nH]c(-c3cnn(CC(N)=O)c3)cc12)c1ccc2c(c1)S(=O)(=O)CCC2
SARS-CoV-2 [1]; [3]
  EC50: > 20 µM
SARS-CoV-2 [1]; Severe acute respiratory syndrome coronavirus 2, HeLa-ACE2, Maximum measured 127.59 %, Minimum measured 107.301 %
  EC90: > 20 µM

## CC(C)[C@@H](Nc1ncnc2[nH]c(-c3cnn(CC(=O)N(C)C)c3)cc12)c1ccc2c(c1)OCCO2
SARS-CoV-2 [1]; [3]
  EC50: > 20 µM
SARS-CoV-2 [1]; Severe acute respiratory syndrome coronavirus 2, HeLa-ACE2, Baseline response 0 %, Hill slope -0.679, Maximum measured 102.904 %, Maximum response 100 %, Minimum measured 72.697 %, R squared 0.733
  EC90: > 20 µM
SARS-CoV-2 [1]; Severe acute respiratory syndrome coronavirus 2, HeLa-ACE2, Baseline response 0 %, Hill slope -5.712, Maximum measured 120.313 %, Maximum response 100 %, Minimum measured 86.961 %, R squared 0.099
  EC90: > 20 µM

## CNC(=O)c1cccc(-c2cc3c(N[C@@H](c4ccc5c(c4)S(=O)(=O)CCC5)C(C)C)ncnc3[nH]2)c1
SARS-CoV-2 [1]; [3]
  EC50: > 20 µM
SARS-CoV-2 [1]; Severe acute respiratory syndrome coronavirus 2, HeLa-ACE2, Baseline response 0 %, Hill slope -1.505, Maximum measured 108.746 %, Maximum response 100 %, Minimum measured 56.34 %, R squared 0.642
  EC90: > 20 µM

## CNC(=O)c1cc2c(N[C@@H](c3ccc4c(c3)S(=O)(=O)CCC4)C(C)C)ncnc2[nH]1
SARS-CoV-2 [1]; [3]
  EC50: > 20 µM
SARS-CoV-2 [1]; Severe acute respiratory syndrome coronavirus 2, HeLa-ACE2, Maximum measured 104.869 %, Minimum measured 90.681 %
  EC90: > 20 µM

## CCNC(=O)c1cc2c(N[C@@H](c3ccc4c(c3)S(=O)(=O)CCO4)C(C)C)ncnc2[nH]1
SARS-CoV-2 [1]; [3]
  EC50: > 20 µM
SARS-CoV-2 [1]; Severe acute respiratory syndrome coronavirus 2, HeLa-ACE2, Baseline response 0 %, Hill slope -0.398, Maximum measured 111.753 %, Maximum response 100 %, Minimum measured 79.377 %, R squared 0.175
  EC90: > 20 µM

## Cc1nn(C)cc1-c1cc2c(N[C@@H](c3ccc4c(c3)S(=O)(=O)CCC4)C(C)C)ncnc2[nH]1
SARS-CoV-2 [1]; [3]
  EC50: > 20 µM
SARS-CoV-2 [1]; Severe acute respiratory syndrome coronavirus 2, HeLa-ACE2, Maximum measured 131.643 %, Minimum measured 93.649 %
  EC90: > 20 µM

Source: ChEMBL document CHEMBL5441381, “ASAP - In vitro antiviral effect” (2024)
